Data set [1] deals with T1, Rac GTPase-activating protein 1 (Homo sapiens, UniProt Q9H0H5).
T1 sequence (Q9H0H5 whole entry): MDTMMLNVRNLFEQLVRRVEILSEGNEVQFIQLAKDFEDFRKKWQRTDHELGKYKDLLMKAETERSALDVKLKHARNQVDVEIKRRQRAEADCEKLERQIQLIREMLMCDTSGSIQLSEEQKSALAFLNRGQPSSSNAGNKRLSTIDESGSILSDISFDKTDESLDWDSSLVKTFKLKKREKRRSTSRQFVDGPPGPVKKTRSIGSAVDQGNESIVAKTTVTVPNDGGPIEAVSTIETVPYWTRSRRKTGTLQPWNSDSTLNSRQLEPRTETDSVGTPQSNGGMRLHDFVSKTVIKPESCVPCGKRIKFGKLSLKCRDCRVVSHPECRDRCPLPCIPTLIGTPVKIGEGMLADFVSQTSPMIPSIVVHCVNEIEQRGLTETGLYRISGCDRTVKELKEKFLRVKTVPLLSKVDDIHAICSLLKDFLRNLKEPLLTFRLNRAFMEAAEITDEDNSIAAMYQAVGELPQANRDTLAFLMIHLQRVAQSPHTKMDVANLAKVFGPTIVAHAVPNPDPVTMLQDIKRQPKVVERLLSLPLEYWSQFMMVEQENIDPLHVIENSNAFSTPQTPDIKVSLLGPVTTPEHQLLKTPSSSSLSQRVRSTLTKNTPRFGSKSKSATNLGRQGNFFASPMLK
Description: blockers of MgcRacGAP-driven Rac1 GTP hydrolysis – biochemical, ADP Hunter fluorescence, primary and confirmatory, confirmation (AID 624330). It is filed as functional.

Data set [2] in a line: HIV-1 Vif–A3G interaction blockers – biochemical, TR-FRET, GST-Vif 1-94, biotin-A3G peptide, dose response retest, primary screen (AID 1117319).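 Further: TR-FRET signal of purified GST-Vif binding a biotinylated A3G peptide; inhibitors lower the FRET signal by blocking Vif and A3G binding.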 It is filed as functional. (Time-resolved FRET reads energy transfer from a long-lived donor to a nearby acceptor.)
Data set [3] can be described thus: viability loss in HeLa cells – cytotoxicity control for MgcRacGAP inhibitor project, dose response (AID 624300). It is filed as functional.
Another data set concerns the target Cytochrome P450 3A4 (Homo sapiens, UniProt P08684).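 Further: CYP3A4 tested as one member of a cytochrome P450 panel screen.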
A further data set deals with Cytochrome P450 2C9 (Homo sapiens, UniProt P11712).
Cytochrome P450 2C9, sequence (P11712 whole entry): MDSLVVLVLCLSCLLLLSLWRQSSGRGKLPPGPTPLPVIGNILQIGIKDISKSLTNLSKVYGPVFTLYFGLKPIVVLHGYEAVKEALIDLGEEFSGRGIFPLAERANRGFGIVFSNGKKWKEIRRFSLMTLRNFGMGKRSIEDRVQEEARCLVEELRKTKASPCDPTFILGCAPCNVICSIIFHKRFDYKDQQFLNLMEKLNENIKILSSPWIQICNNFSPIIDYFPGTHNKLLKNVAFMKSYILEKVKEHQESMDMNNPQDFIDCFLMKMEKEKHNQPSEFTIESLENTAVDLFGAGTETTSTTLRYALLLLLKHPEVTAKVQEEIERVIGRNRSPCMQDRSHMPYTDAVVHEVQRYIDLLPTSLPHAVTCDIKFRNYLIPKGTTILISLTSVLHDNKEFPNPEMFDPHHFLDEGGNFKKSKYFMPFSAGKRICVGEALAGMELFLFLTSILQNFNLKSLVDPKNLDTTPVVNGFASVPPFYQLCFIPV
A further data set has as its target T2, Cytochrome P450 1A2 (Homo sapiens, UniProt P05177).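 Further: PubChem cytochrome P450 panel assay, CYP1A2 panel member.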
T2 sequence (P05177 whole entry): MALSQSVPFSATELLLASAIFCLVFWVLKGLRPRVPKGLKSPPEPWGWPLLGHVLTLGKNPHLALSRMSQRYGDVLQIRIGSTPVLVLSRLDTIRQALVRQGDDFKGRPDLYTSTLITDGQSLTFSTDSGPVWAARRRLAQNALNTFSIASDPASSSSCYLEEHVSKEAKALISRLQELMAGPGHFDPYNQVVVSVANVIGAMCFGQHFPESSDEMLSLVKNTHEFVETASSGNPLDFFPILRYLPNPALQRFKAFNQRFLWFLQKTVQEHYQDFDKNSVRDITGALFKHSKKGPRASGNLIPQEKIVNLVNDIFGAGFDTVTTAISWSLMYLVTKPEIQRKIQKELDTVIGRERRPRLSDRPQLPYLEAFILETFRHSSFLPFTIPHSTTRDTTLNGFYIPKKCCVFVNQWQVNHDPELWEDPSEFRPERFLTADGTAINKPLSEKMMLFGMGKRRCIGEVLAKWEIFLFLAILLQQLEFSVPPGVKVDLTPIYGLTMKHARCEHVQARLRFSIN

The test system of the next data set is Vero. In words: viability of Vero cells under compound – cytotoxicity control for flavivirus capping enzyme inhibitors (AID 588742). It is filed as functional. To be noted: Chlorocebus sabaeus.
Data set [4] can be described thus: viability loss in THP-1 monocytes – THP-1 cells, cytotoxicity control for Vif-APOBEC3G degradation inhibitor project, dose response (AID 1117359). It is filed as functional. To be noted: THP-1.
The target of another data set is Albumin (Bos taurus, UniProt P02769). Description: Counterscreen for inhibitors of T-cell receptor (TCR)-CD3 interaction: Fluorescence-based biochemical high throughput dose response assay to identify inhibitors of T-cell receptor (TCR)-CD3 interaction using a TAMRA-labeled BSA probe. It is filed as functional. For orientation: The purpose of a counterscreen is to sort out artefacts and off-target activity.
Albumin, sequence (P02769 whole entry): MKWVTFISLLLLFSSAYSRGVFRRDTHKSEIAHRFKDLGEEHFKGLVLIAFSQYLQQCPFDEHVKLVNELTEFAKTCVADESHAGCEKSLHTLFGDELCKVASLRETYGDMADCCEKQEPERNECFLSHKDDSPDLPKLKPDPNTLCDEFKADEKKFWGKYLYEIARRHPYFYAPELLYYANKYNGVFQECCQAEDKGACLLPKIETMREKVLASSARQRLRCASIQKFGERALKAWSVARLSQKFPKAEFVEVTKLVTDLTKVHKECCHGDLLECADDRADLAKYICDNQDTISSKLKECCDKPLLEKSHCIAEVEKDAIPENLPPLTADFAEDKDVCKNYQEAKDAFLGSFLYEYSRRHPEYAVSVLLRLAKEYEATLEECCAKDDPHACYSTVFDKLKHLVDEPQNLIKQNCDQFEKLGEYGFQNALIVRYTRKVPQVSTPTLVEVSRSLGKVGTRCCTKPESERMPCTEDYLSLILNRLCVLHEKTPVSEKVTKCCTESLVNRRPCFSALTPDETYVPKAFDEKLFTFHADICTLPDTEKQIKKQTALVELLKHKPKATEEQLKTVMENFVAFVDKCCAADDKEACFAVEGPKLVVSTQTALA

Data set [5] in a line: fluconazole-exposed Candida albicans growth modulators – fluorescence, retest, confirmation (AID 2467). It is filed as functional, cell-based.
The nature of data set [6]: NIH-3T3 fibroblast cytotoxicity, dose response, cytotoxicity control, cell-based, fluorescence, Alamar Blue, secondary assay (AID 2327).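 Further: NIH-3T3 mouse fibroblasts cultured with fluconazole at 8 µg/mL.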 It is filed as functional. On the technique in general: The colour change of resazurin is a common sign of viable cells or microbes.
For data set [7], the target named is T3, Sentrin-specific protease 8 (Homo sapiens, UniProt Q96LD8).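 Further: luminescence read-out of SENP8 inhibition, dose-response confirmation following an ultra-high-throughput screen.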
T3 sequence (Q96LD8 whole entry): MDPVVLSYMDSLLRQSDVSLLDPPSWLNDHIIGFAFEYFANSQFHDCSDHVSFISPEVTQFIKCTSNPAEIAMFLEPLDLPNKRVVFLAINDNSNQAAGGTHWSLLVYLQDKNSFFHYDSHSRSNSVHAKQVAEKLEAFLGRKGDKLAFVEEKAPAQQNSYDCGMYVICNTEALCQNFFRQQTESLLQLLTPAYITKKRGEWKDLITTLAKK
It is filed as functional.

Data set [8] is described as follows: blockers of bursicon-stimulated LGR2 cAMP reporter – cell-based, HEK293, CRE-luciferase reporter, cherry pick, set 2, dose response (AID 743343).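 Further: transfected cells were stimulated with diluted bursicon conditioned medium after compound addition.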 It is filed as functional.
In a further data set the target is T4, Caspase-3 (Homo sapiens, UniProt P42574).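 Further: Dose-response selectivity test against caspase-3 for candidate inhibitors of sentrin-specific proteases (SENPs).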
T4 sequence (P42574 whole entry): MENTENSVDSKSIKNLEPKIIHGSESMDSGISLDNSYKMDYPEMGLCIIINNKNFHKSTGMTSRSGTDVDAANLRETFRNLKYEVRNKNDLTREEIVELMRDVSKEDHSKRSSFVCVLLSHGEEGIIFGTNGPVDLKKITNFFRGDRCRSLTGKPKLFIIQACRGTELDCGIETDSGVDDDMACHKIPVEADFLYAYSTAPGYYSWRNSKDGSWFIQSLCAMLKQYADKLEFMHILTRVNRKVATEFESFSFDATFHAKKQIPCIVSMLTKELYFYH
It is filed as functional.

Data set [9] can be described thus: viability loss in HEK293 cells – cell-based, plate reader, cherry-picked samples, cytotoxicity control, dose response (AID 743446). It is filed as functional.
A short description of data set [10]: blockade of melanocortin 4 receptor signaling – cell-based, plate reader, cherry pick, counter-screen for LGR2 antagonist project, dose response (AID 743444).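 Further: transfected HEK 293 cells stimulated with alpha-MSH peptide; potency of inhibitors of the alpha-MSH evoked signal.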 It is filed as functional.
Data set [11] in a line: toxicity toward HepG2 liver cells – cell-based, plate reader, cherry-pick, antagonist series, cytotoxicity control, dose response (AID 743416). It is filed as functional.
The target in data set [12] is T5, Sentrin-specific protease 7 (Homo sapiens, UniProt Q9BQF6).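 Further: Luminescence-based dose-response confirmation of ultra-high-throughput screening hits, measuring inhibition of SENP7.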
T5 sequence (Q9BQF6 whole entry): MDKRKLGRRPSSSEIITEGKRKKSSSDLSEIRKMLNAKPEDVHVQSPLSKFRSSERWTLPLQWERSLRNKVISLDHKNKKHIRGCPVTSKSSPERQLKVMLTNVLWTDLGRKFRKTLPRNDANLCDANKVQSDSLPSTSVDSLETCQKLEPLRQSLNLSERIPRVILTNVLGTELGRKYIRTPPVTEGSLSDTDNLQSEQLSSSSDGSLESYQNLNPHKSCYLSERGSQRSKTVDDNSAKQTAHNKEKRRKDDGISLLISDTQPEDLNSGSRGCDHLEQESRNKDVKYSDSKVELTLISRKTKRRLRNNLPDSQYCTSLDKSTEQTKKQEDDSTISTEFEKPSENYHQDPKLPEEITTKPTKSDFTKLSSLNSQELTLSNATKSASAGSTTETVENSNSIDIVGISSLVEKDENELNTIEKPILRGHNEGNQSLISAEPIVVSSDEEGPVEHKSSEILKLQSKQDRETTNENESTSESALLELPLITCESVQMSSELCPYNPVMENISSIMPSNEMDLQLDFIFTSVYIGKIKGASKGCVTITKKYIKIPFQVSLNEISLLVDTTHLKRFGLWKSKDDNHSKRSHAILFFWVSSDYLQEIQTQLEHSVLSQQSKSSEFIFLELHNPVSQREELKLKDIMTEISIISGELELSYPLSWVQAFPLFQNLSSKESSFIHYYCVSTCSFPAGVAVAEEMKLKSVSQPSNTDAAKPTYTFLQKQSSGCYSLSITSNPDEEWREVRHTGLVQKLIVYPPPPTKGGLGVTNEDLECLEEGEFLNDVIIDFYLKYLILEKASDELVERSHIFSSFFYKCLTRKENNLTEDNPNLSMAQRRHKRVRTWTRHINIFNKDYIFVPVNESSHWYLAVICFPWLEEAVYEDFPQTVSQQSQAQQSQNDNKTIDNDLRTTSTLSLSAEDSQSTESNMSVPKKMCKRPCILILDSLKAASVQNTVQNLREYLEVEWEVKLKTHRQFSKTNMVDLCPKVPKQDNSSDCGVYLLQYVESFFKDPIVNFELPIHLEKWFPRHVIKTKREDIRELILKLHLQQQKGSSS
It is filed as functional.

Data set [13] in a line: A549 cell cytotoxicity, dose response, cytotoxicity control, plate reader, cherry-pick, antagonist series (AID 743412). It is filed as functional, cell-based.
The target of data set [14] is T6, Sentrin-specific protease 6 (Homo sapiens, UniProt Q9GZR1).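 Further: Luminescence-based dose-response confirmatory assay of SENP6 inhibition, following up an ultra-high-throughput screen.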
T6 sequence (Q9GZR1 whole entry): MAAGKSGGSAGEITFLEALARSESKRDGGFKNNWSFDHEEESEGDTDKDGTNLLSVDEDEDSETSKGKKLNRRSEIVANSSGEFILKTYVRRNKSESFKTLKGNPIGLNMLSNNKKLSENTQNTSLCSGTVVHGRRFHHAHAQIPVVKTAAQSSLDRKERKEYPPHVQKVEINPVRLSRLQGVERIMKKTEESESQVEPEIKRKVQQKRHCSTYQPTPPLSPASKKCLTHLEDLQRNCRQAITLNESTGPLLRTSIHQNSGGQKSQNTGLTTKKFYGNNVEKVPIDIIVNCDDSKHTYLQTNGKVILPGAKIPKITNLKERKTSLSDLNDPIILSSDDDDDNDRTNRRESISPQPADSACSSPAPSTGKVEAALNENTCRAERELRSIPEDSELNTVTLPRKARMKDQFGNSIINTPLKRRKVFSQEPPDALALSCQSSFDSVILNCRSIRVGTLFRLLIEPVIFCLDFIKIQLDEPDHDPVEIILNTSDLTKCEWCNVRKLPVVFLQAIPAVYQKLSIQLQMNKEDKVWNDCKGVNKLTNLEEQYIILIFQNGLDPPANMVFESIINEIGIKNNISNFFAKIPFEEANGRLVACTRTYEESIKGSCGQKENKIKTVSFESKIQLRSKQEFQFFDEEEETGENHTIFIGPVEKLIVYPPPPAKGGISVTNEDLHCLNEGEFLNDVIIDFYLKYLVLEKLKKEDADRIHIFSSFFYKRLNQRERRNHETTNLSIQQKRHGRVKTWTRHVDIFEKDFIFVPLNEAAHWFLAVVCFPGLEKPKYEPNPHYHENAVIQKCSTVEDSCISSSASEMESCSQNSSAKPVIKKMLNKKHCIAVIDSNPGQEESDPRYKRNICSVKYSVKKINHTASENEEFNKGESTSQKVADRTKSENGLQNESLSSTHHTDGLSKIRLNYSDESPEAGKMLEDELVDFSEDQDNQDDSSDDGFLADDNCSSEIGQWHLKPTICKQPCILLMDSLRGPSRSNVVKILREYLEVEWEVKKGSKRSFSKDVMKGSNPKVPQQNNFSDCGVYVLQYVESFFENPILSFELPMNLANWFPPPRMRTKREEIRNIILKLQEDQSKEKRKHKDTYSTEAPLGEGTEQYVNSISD
It is filed as functional.

Each structure is given as a SMILES string. Calls of active or inactive are those of the source.

One may read the IC50 as the concentration needed to halve the response being measured. One may read the CC50 as the concentration giving 50% cytotoxicity. As usually defined, the AC50 is the concentration giving half of the maximal activity seen. The EC50 is the concentration giving half of the maximal effect.

Cytochrome P450 3A4, sequence (P08684 whole entry): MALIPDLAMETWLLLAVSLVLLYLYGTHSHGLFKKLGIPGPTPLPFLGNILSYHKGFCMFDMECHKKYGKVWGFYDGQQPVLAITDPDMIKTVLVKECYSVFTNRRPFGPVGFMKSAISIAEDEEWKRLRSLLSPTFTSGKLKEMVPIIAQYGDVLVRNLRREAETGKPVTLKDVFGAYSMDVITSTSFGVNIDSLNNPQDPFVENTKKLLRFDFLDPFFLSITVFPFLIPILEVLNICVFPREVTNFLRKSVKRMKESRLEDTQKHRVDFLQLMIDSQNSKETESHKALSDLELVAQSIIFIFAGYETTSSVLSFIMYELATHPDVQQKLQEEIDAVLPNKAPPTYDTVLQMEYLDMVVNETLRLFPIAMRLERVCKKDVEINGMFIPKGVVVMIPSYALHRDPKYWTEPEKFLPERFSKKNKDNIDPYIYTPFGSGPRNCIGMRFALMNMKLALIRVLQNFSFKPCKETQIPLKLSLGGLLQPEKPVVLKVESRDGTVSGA

As to `Cc1cc(C)n(CC(O)CN2c3ccccc3Sc3ccccc32)n1` (centres undefined), the results for the half-maximal inhibitory concentration (IC50) in data set [1] and in data set [2] were 82.6 µM (active) and > 100 µM (active), respectively. In data set [3], the cytotoxic concentration (CC50) is 100 µM (active).
For the compound `Cc1ccc(NC(=O)CSc2nnc(C3CCCCC3)n2N)cc1F`, the concentration for half-maximal inhibition (IC50) in data set [2] is > 100 µM (active).
Regarding `C/C(O)=C1/C(=O)N(C)C(=S)N(c2ccccc2)C1=O`, the IC50 in data set [2] was > 100 µM (active).
The same measure, in the same setting: in the case of `O=C(O)CN1C(=O)CSc2ccccc21` it was > 100 µM (active).
As for `CCN(CC)C(=O)CCNS(=O)(=O)c1ccc(C)cc1`, the AC50 at Cytochrome P450 3A4 was 25.1 µM (inconclusive); on Cytochrome P450 2C9, “inconclusive”; at Cytochrome P450 1A2, 28.2 µM (inconclusive). Besides, the 50% inhibitory concentration (IC50) in data set [2] is > 100 µM (active).
In the case of `CCOc1cccc(CNc2ccc(O)cc2)c1OCc1ccccc1Cl`, the CC50 in the data set with Vero is > 40 µM (active); in data set [4], 23 µM (active).
With `O=C(OC(C(=O)NCc1cccs1)c1ccccc1Cl)c1ccco1` (centres undefined), the CC50 in [4] is > 40 µM (active).
Regarding `Cc1ccc(-c2csc(NC(=O)c3ccc(-c4ccccc4)cc3)n2)o1`, the 50% inhibitory concentration (IC50) in [2] was > 100 µM (active).
Regarding `COc1ccccc1C(=O)C1CCCN(Cc2ccc3c(c2)OCCO3)C1` (centres undefined), in data set [4], the CC50 was > 40 µM (active).
As to `COC(=O)Cc1cc(O)n2nc(C)cc2n1`, the IC50 in data set [2] was > 100 µM (active).
For the compound `O=C(NNC(=O)c1ccccc1O)c1ccc(-c2ccc([N+](=O)[O-])cc2)o1`, the IC50 on Albumin is > 94.1 µM (inactive). Further, the half-maximal effective concentration (EC50) in [5] was > 38 µM (not active); in [6], > 150 µM (inactive). The cytotoxic concentration (CC50) in data set [4] is 15.3 µM (active).
For `Cn1c(-c2ccccc2)cc2onc(-c3ccccc3)c2c1=O`, the IC50 was 3.11 µM (active) in [7], 2.4 µM (active) on Caspase-3, 1.14 µM (active) in data set [12] and 1.51 µM (active) in data set [14]. Further, the concentration at half-maximal activity (AC50) in data set [8] is 3.08 µM (active); in data set [9], 51.9 µM (active); in [10], 3.66 µM (active); in data set [11] it was 34.4 µM (active); in data set [13], > 52 µM (inactive).

Source of the values: ChEMBL document CHEMBL1201862, “PubChem BioAssay data set” (2004).
